# From PubChem BioAssay AID330 (DTP/NCI, 2004)
# Several values for one entry are separate records, joined by “and”; a condition that tells them apart may be missing. Equal entries are not always repeated. Toxic doses and inconclusive results are not listed.
# System: P388 leukemia ip, CD2F1 mice, survival T/C
# Assay: NCI In Vivo Anticancer Drug Screen. Data for tumor model P388 Leukemia (intraperitoneal) in CD2F1 (CDF1) mice
# Conditions: endpoint: median survival time, higher = longer survival
# How it was run: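 Mice carrying the transplanted tumor received test compound or vehicle. Survival was recorded in each group, and the value is the treated-group measurement divided by that of the vehicle-treated control group.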
# [1] = dose: 100.0 mg/kg/injection, schedule: Q01DX009 (ip), vehicle: saline
# [2] = dose: 200.0 mg/kg/injection, schedule: Q01DX009 (ip), vehicle: saline
# [3] = dose: 50.0 mg/kg/injection, schedule: Q01DX009 (ip), vehicle: saline
# [4] = dose: 60.0 mg/kg/injection, schedule: Q01DX005 (ip), vehicle: Klucel (hydroxypropylcellulose) (HPC)
# [5] = dose: 60.0 mg/kg/injection, schedule: Q01DX005 (ip), vehicle: saline with Tween-80
# [6] = dose: 120.0 mg/kg/injection, schedule: Q01DX005 (ip), vehicle: saline with Tween-80
# [7] = dose: 240.0 mg/kg/injection, schedule: Q01DX005 (ip), vehicle: saline with Tween-80
# [8] = dose: 50.0 mg/kg/injection, schedule: Q01DX005 (ip), vehicle: Klucel (hydroxypropylcellulose) (HPC)
# [9] = dose: 100.0 mg/kg/injection, schedule: Q01DX005 (ip), vehicle: Klucel (hydroxypropylcellulose) (HPC)
# [10] = dose: 200.0 mg/kg/injection, schedule: Q01DX005 (ip), vehicle: Klucel (hydroxypropylcellulose) (HPC)
# [11] = dose: 50.0 mg/kg/injection, schedule: Q01DX005 (ip), vehicle: saline with Tween-80
# [12] = dose: 25.0 mg/kg/injection, schedule: Q01DX005 (ip), vehicle: saline with Tween-80
# [13] = dose: 50.0 mg/kg/injection, schedule: Q01DX009 (ip), vehicle: Klucel (hydroxypropylcellulose) (HPC)
# [14] = dose: 100.0 mg/kg/injection, schedule: Q01DX009 (ip), vehicle: Klucel (hydroxypropylcellulose) (HPC)
# [15] = dose: 12.5 mg/kg/injection, schedule: Q01DX009 (ip), vehicle: saline
# [16] = dose: 25.0 mg/kg/injection, schedule: Q01DX009 (ip), vehicle: saline
# [17] = dose: 12.5 mg/kg/injection, schedule: Q01DX009 (ip), vehicle: Klucel (hydroxypropylcellulose) (HPC)
structure (smiles),measurement,setting,value
COc1cc(C(=O)NCCS(=O)(=O)O)cc(OC)c1OC,T/C,[1],109 % of control
same,T/C,[2],109 % of control
same,T/C,"dose: 400.0 mg/kg/injection, schedule: Q01DX009 (ip), vehicle: saline",105 % of control
CC(C)C1=CC(=O)C2=C(CCC3C4=C(CCC23C)C(=O)OC4)C1=O (stereo not given),T/C,"dose: 6.25 mg/kg/injection, schedule: Q01DX009 (ip), vehicle: DMSO",105 % of control
same,T/C,"dose: 12.5 mg/kg/injection, schedule: Q01DX009 (ip), vehicle: DMSO",113 % of control
same,T/C,"dose: 25.0 mg/kg/injection, schedule: Q01DX009 (ip), vehicle: DMSO",98 % of control
C1N2CN3CN1CP(C2)C3,T/C,[3],112 % of control
same,T/C,[1],115 % of control
same,T/C,[2],106 % of control
COc1c2occc2c(CCl)c2ccc(=O)oc12,T/C,"dose: 15.0 mg/kg/injection, schedule: Q01DX005 (ip), vehicle: Klucel (hydroxypropylcellulose) (HPC)",115 % of control
same,T/C,"dose: 30.0 mg/kg/injection, schedule: Q01DX005 (ip), vehicle: Klucel (hydroxypropylcellulose) (HPC)",111 % of control
same,T/C,[4],111 % of control and 116 % of control
O=C1OCc2cnccc21,T/C,"dose: 8.75 mg/kg/injection, schedule: Q01DX005 (ip), vehicle: Klucel (hydroxypropylcellulose) (HPC)",98 % of control
same,T/C,"dose: 17.5 mg/kg/injection, schedule: Q01DX005 (ip), vehicle: Klucel (hydroxypropylcellulose) (HPC)",100 % of control
same,T/C,"dose: 35.0 mg/kg/injection, schedule: Q01DX005 (ip), vehicle: Klucel (hydroxypropylcellulose) (HPC)",97 % of control
CNC(=O)C(C(=O)NC)n1cnc(C(=O)OC)c1O,T/C,"dose: 60.0 mg/kg/injection, schedule: Q01DX005 (ip), vehicle: water",108 % of control
same,T/C,"dose: 120.0 mg/kg/injection, schedule: Q01DX005 (ip), vehicle: water",107 % of control
same,T/C,"dose: 240.0 mg/kg/injection, schedule: Q01DX005 (ip), vehicle: water",107 % of control
COC(=O)c1c(-c2ccc(OC)cc2)c(-c2ccc(OC)cc2)[nH]c(=O)c1C#N,T/C,[5],100 % of control
same,T/C,[6],100 % of control
same,T/C,[7],99 % of control
[O-][n+]1c2ccccc2[n+]([O-])c2c(O)cccc21,T/C,"dose: 3.12 mg/kg/injection, schedule: Q01DX009 (ip), vehicle: distilled water + Tween-80",113 % of control
same,T/C,"dose: 6.25 mg/kg/injection, schedule: Q01DX009 (ip), vehicle: distilled water + Tween-80",114 % of control and 121 % of control
same,T/C,"dose: 12.5 mg/kg/injection, schedule: Q01DX009 (ip), vehicle: distilled water + Tween-80",121 % of control
same,T/C,"dose: 25.0 mg/kg/injection, schedule: Q01DX009 (ip), vehicle: distilled water + Tween-80",119 % of control and 122 % of control
CCOc1ccc(-n2cnc3c(=O)[nH]c(N)nc32)cc1,T/C,"dose: 15.0 mg/kg/injection, schedule: Q01DX005 (ip), vehicle: saline with Tween-80",90 % of control
same,T/C,"dose: 30.0 mg/kg/injection, schedule: Q01DX005 (ip), vehicle: saline with Tween-80",91 % of control
same,T/C,[5],86 % of control and 90 % of control
same,T/C,[7],102 % of control
CSCCC(NCC(=O)Nc1ccc(S(=O)(=O)c2ccc(NC(=O)CNC(CCSC)C(=O)O)cc2)cc1)C(=O)O (stereo not given),T/C,[8],100 % of control
same,T/C,[9],101 % of control
same,T/C,[10],101 % of control
C=C(C)C(O)C#CCO[Si](c1ccccc1)(c1ccccc1)C(C)(C)C (stereo not given),T/C,[5],95 % of control
same,T/C,[6],97 % of control
same,T/C,[7],98 % of control
CC(=O)C(=Cc1ccc(C)cc1)C(C)=O,T/C,[11],99 % of control
same,T/C,"dose: 100.0 mg/kg/injection, schedule: Q01DX005 (ip), vehicle: saline with Tween-80",103 % of control
same,T/C,"dose: 200.0 mg/kg/injection, schedule: Q01DX005 (ip), vehicle: saline with Tween-80",110 % of control
CN1C(=O)C2C=CC1C1C(=O)N(c3ccc([N+](=O)[O-])cc3)C(=O)C21 (stereo not given),T/C,"dose: 100.0 mg/kg/injection, schedule: Q04DX002 (ip), vehicle: saline with Tween-80",103 % of control
same,T/C,"dose: 200.0 mg/kg/injection, schedule: Q04DX002 (ip), vehicle: saline with Tween-80",95 % of control
same,T/C,"dose: 400.0 mg/kg/injection, schedule: Q04DX002 (ip), vehicle: saline with Tween-80",95 % of control
CN(C(=S=O)c1ccccc1)c1ccc([N+](=O)[O-])cc1,T/C,"dose: 50.0 mg/kg/injection, schedule: Q04DX002 (ip), vehicle: saline",95 % of control
same,T/C,"dose: 100.0 mg/kg/injection, schedule: Q04DX002 (ip), vehicle: saline",95 % of control
same,T/C,"dose: 200.0 mg/kg/injection, schedule: Q04DX002 (ip), vehicle: saline",96 % of control
CCC(C)Nc1c(N)cc(C(F)(F)F)cc1N (stereo not given),T/C,[4],98 % of control
same,T/C,"dose: 120.0 mg/kg/injection, schedule: Q01DX005 (ip), vehicle: Klucel (hydroxypropylcellulose) (HPC)",97 % of control
same,T/C,"dose: 240.0 mg/kg/injection, schedule: Q01DX005 (ip), vehicle: Klucel (hydroxypropylcellulose) (HPC)",99 % of control
CCCN(CCC)CC(C)(C)C(O)c1ccc(OC)c2ccccc12 (stereo not given),T/C,[12],110 % of control
same,T/C,[11],108 % of control
CNc1nncc(=O)[nH]1,T/C,[13],107 % of control
same,T/C,[14],107 % of control
same,T/C,"dose: 200.0 mg/kg/injection, schedule: Q01DX009 (ip), vehicle: Klucel (hydroxypropylcellulose) (HPC)",99 % of control
O=C(OCC1OC(n2cc(C(F)(F)F)c(=O)[nH]c2=O)CC1O)c1ccc([N+](=O)[O-])cc1 (stereo not given),T/C,"dose: 6.25 mg/kg/injection, schedule: Q01DX005 (ip), vehicle: Klucel (hydroxypropylcellulose) (HPC)",110 % of control
same,T/C,"dose: 12.5 mg/kg/injection, schedule: Q01DX005 (ip), vehicle: Klucel (hydroxypropylcellulose) (HPC)",110 % of control
same,T/C,"dose: 25.0 mg/kg/injection, schedule: Q01DX005 (ip), vehicle: Klucel (hydroxypropylcellulose) (HPC)",115 % of control
same,T/C,[8],161 % of control
CCNc1snc2c1c(=O)[nH]c(=O)n2Cc1ccccc1,T/C,[15],86 % of control
same,T/C,[16],90 % of control
same,T/C,[3],98 % of control and 92 % of control
O=C(OCc1ccccc1)N1C[C@@H](Br)[C@H](Br)[C@H]1Cc1ccccc1,T/C,"dose: 100.0 mg/kg/injection, schedule: Q01DX001 (ip), vehicle: distilled water + alcohol",95 % of control
same,T/C,"dose: 200.0 mg/kg/injection, schedule: Q01DX001 (ip), vehicle: distilled water + alcohol",100 % of control
NC(CS)C(=O)[O][Sn]([O]C(=O)C(N)CS)([O]C(=O)C(N)CS)[O]C(=O)C(N)CS (stereo not given),T/C,[8],99 % of control
same,T/C,[9],108 % of control
same,T/C,[10],89 % of control
ClC(Cl)(Cl)C1=NCc2nnn(Cc3ccccc3)c2N1,T/C,"dose: 6.25 mg/kg/injection, schedule: Q01DX009 (ip), vehicle: Klucel (hydroxypropylcellulose) (HPC)",113 % of control
same,T/C,"dose: 6.25 mg/kg/injection, schedule: Q01DX009 (ip), vehicle: saline with Tween-80",118 % of control
same,T/C,[17],114 % of control
same,T/C,"dose: 12.5 mg/kg/injection, schedule: Q01DX009 (ip), vehicle: saline with Tween-80",115 % of control and 117 % of control
same,T/C,"dose: 25.0 mg/kg/injection, schedule: Q01DX009 (ip), vehicle: saline with Tween-80",105 % of control and 106 % of control
same,T/C,[13],104 % of control
same,T/C,"dose: 100.0 mg/kg/injection, schedule: Q01DX009 (ip), vehicle: saline with Tween-80",110 % of control
same,T/C,"dose: 200.0 mg/kg/injection, schedule: Q01DX009 (ip), vehicle: saline with Tween-80",100 % of control and 113 % of control
same,T/C,"dose: 400.0 mg/kg/injection, schedule: Q01DX009 (ip), vehicle: saline with Tween-80",96 % of control
COc1cc(OC)c(NC(=O)Oc2cc(C)c(I)cc2C)cc1Cl,T/C,"dose: 6.25 mg/kg/injection, schedule: Q01DX009 (ip), vehicle: saline",118 % of control
same,T/C,[15],96 % of control
same,T/C,[16],93 % of control
same,T/C,"dose: 100.0 mg/kg/injection, schedule: Q01DX009 (ip), vehicle: saline + alcohol",98 % of control
same,T/C,"dose: 200.0 mg/kg/injection, schedule: Q01DX009 (ip), vehicle: saline + alcohol",95 % of control
C[N+]1(Cc2csc(-c3ccc(Cl)cc3)n2)CCOCC1,T/C,[17],100 % of control and 106 % of control
same,T/C,"dose: 25.0 mg/kg/injection, schedule: Q01DX009 (ip), vehicle: Klucel (hydroxypropylcellulose) (HPC)",113 % of control and 96 % of control
same,T/C,[13],98 % of control and 108 % of control
CC1=CC2(C)OC(=O)N(c3ccccc3)C2N=C1 (stereo not given),T/C,[13],111 % of control
same,T/C,[14],109 % of control
COc1cc2cc3c(c(O)c2c(OC)c1OC)C(=O)CC(C)(C)C3,T/C,[12],101 % of control
same,T/C,[11],91 % of control
